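Grown in 96-well plates, cells were treated for 48 hours with each compound at five concentrations. Insufficient inhibition: endpoint recorded as highest concentration tested. Abbreviation: GI50, concentration required for 50% inhibition of growth. TGI is the concentration that stops growth completely.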
Experiments:
Test in all cases: inhibition of tumour cell growth, NCI panel, 48 h
NCI-H23 lung = test system: NCI-H23 lung
UACC-62 melanoma = test system: UACC-62 melanoma
RXF 393 renal = test system: RXF 393 renal
OVCAR-3 ovarian = test system: OVCAR-3 ovarian
786-0 renal = test system: 786-0 renal
OVCAR-8 ovarian = test system: OVCAR-8 ovarian
A549 NSCLC = test system: A549 NSCLC
ACHN renal = test system: ACHN renal
MALME-3M melanoma = test system: MALME-3M melanoma
IGROV1 ovarian = test system: IGROV1 ovarian
HOP-62 NSCLC = test system: HOP-62 NSCLC
PC-3 prostate = test system: PC-3 prostate
MDA-MB-468 breast = test system: MDA-MB-468 breast
MDA-MB-435 = test system: MDA-MB-435
SK-MEL-2 melanoma = test system: SK-MEL-2 melanoma
SF-539 CNS = test system: SF-539 CNS
T-47D breast = test system: T-47D breast
CCRF-CEM leukemia = test system: CCRF-CEM leukemia
KM12 colon = test system: KM12 colon
MCF7 breast = test system: MCF7 breast
NCI-H522 lung = test system: NCI-H522 lung
U251 CNS = test system: U251 CNS
A498 renal = test system: A498 renal
SK-OV-3 ovarian = test system: SK-OV-3 ovarian
RPMI-8226 leukemia = test system: RPMI-8226 leukemia
SNB-75 CNS = test system: SNB-75 CNS
HCC-2998 colon = test system: HCC-2998 colon
SF-268 CNS = test system: SF-268 CNS
HCT-116 colon = test system: HCT-116 colon
SF-295 CNS = test system: SF-295 CNS
SW-620 colon = test system: SW-620 colon
SN12C renal = test system: SN12C renal
NCI-H460 lung = test system: NCI-H460 lung
COLO 205 colon = test system: COLO 205 colon
K-562 leukemia = test system: K-562 leukemia
HOP-92 NSCLC = test system: HOP-92 NSCLC
OVCAR-5 ovarian = test system: OVCAR-5 ovarian
EKVX NSCLC = test system: EKVX NSCLC
SK-MEL-5 melanoma = test system: SK-MEL-5 melanoma
MDA-MB-231 breast = test system: MDA-MB-231 breast
M14 melanoma = test system: M14 melanoma
BT-549 breast = test system: BT-549 breast
SK-MEL-28 melanoma = test system: SK-MEL-28 melanoma
CAKI-1 renal = test system: CAKI-1 renal
DU-145 prostate = test system: DU-145 prostate
SNB-19 CNS = test system: SNB-19 CNS
HT29 colon = test system: HT29 colon
HCT-15 colon = test system: HCT-15 colon
HL-60(TB) leukemia = test system: HL-60(TB) leukemia
UACC-257 melanoma = test system: UACC-257 melanoma
NCI-H226 lung = test system: NCI-H226 lung
UO-31 renal = test system: UO-31 renal
MOLT-4 leukemia = test system: MOLT-4 leukemia
LOX IMVI melanoma = test system: LOX IMVI melanoma
SR leukemia = test system: SR leukemia
TK-10 renal = test system: TK-10 renal
OVCAR-4 ovarian = test system: OVCAR-4 ovarian

Work on `COc1cc(/C=C/C(=O)c2ccc(S(=O)(=O)NCCNc3nc(N(C)C)nc(N4CCOCC4)n3)cc2)cc(OC)c1OC` yielded a GI50 (NCI-H23 lung) of 3.09 µM, a TGI (NCI-H23 lung) of 12.3 µM and a GI50 (UACC-62 melanoma) of 2140 nM. For the same compound, the TGI (UACC-62 melanoma) was 5.54 µM, the GI50 (RXF 393 renal) was 1220 nM and the TGI (RXF 393 renal) was 3.24 µM. It also gave a GI50 (OVCAR-3 ovarian) of 2020 nM, a TGI (OVCAR-3 ovarian) of 4.23 µM and a GI50 (786-0 renal) of 1890 nM. For the same compound, the TGI (786-0 renal) was 3.68 µM, the GI50 (OVCAR-8 ovarian) was 2300 nM and the TGI (OVCAR-8 ovarian) was 6.07 µM. It also gave a GI50 (A549 NSCLC) of 3.55 µM, a TGI (A549 NSCLC) of 14 µM and a GI50 (ACHN renal) of 1780 nM. The TGI (ACHN renal) was 3.46 µM, the GI50 (MALME-3M melanoma) was 1970 nM and the TGI (MALME-3M melanoma) was 4.31 µM. It also gave a GI50 (IGROV1 ovarian) of 2600 nM, a TGI (IGROV1 ovarian) of 7.54 µM and a GI50 (HOP-62 NSCLC) of 2660 nM. It also gave a TGI (HOP-62 NSCLC) of 8.72 µM, a GI50 (PC-3 prostate) of 3.76 µM and a TGI (PC-3 prostate) of 13.6 µM. For the same compound, the GI50 (MDA-MB-468 breast) was 1690 nM, the TGI (MDA-MB-468 breast) was 3.36 µM and the GI50 (MDA-MB-435) was 1900 nM. For the same compound, the TGI (MDA-MB-435) was 4.02 µM, the GI50 (SK-MEL-2 melanoma) was 10.7 µM and the TGI (SK-MEL-2 melanoma) was 22.9 µM. The GI50 (SF-539 CNS) was 1810 nM, the TGI (SF-539 CNS) was 3.37 µM and the GI50 (T-47D breast) was 5.74 µM. For the same compound, the TGI (T-47D breast) was 23.3 µM, the GI50 (CCRF-CEM leukemia) was 2070 nM and the TGI (CCRF-CEM leukemia) was 7.25 µM. For the same compound, the GI50 (KM12 colon) was 1700 nM, the TGI (KM12 colon) was 3.33 µM and the GI50 (MCF7 breast) was 1640 nM. The TGI (MCF7 breast) was 3.98 µM, the GI50 (NCI-H522 lung) was 1660 nM and the TGI (NCI-H522 lung) was 3.25 µM. For the same compound, the GI50 (U251 CNS) was 1540 nM, the TGI (U251 CNS) was 2920 nM and the GI50 (A498 renal) was 14.2 µM. The TGI (A498 renal) was 27.4 µM, the GI50 (SK-OV-3 ovarian) was 14.3 µM and the TGI (SK-OV-3 ovarian) was 27.4 µM. For the same compound, the GI50 (RPMI-8226 leukemia) was 1390 nM, the TGI (RPMI-8226 leukemia) was 4.66 µM and the GI50 (SNB-75 CNS) was 1560 nM. It also gave a TGI (SNB-75 CNS) of 15.5 µM, a GI50 (HCC-2998 colon) of 1800 nM and a TGI (HCC-2998 colon) of 3.26 µM. For the same compound, the GI50 (SF-268 CNS) was 3.16 µM, the TGI (SF-268 CNS) was 12.5 µM and the GI50 (HCT-116 colon) was 1560 nM. For the same compound, the TGI (HCT-116 colon) was 3.04 µM, the GI50 (SF-295 CNS) was 3.04 µM and the TGI (SF-295 CNS) was 11.9 µM. For the same compound, the GI50 (SW-620 colon) was 1900 nM, the TGI (SW-620 colon) was 3.75 µM and the GI50 (SN12C renal) was 2720 nM. It also gave a TGI (SN12C renal) of 8.71 µM, a GI50 (NCI-H460 lung) of 3.17 µM and a TGI (NCI-H460 lung) of 10.4 µM. It also gave a GI50 (COLO 205 colon) of 2140 nM, a TGI (COLO 205 colon) of 5.03 µM and a GI50 (K-562 leukemia) of 1460 nM. For the same compound, the TGI (K-562 leukemia) was greater than 100 µM, the GI50 (HOP-92 NSCLC) was 7.27 µM and the TGI (HOP-92 NSCLC) was 25.7 µM. For the same compound, the GI50 (OVCAR-5 ovarian) was 2830 nM, the TGI (OVCAR-5 ovarian) was 7.57 µM and the GI50 (EKVX NSCLC) was 3.74 µM. The TGI (EKVX NSCLC) was 19.8 µM, the GI50 (SK-MEL-5 melanoma) was 7.9 µM and the TGI (SK-MEL-5 melanoma) was 20.7 µM. It also gave a GI50 (MDA-MB-231 breast) of 2900 nM, a TGI (MDA-MB-231 breast) of 7.55 µM and a GI50 (M14 melanoma) of 2180 nM. It also gave a TGI (M14 melanoma) of 6.34 µM, a GI50 (BT-549 breast) of 2010 nM and a TGI (BT-549 breast) of 3.73 µM. The GI50 (SK-MEL-28 melanoma) was 2120 nM, the TGI (SK-MEL-28 melanoma) was 4.8 µM and the GI50 (CAKI-1 renal) was 10.6 µM. It also gave a TGI (CAKI-1 renal) of 23.3 µM, a GI50 (DU-145 prostate) of 3.31 µM and a TGI (DU-145 prostate) of 11.6 µM. The GI50 (SNB-19 CNS) was 4.28 µM, the TGI (SNB-19 CNS) was 16.2 µM and the GI50 (HT29 colon) was 1720 nM. It also gave a TGI (HT29 colon) of 3.19 µM, a GI50 (HCT-15 colon) of 1820 nM and a TGI (HCT-15 colon) of 3.91 µM. For the same compound, the GI50 (HL-60(TB) leukemia) was 1970 nM, the TGI (HL-60(TB) leukemia) was 7.34 µM and the GI50 (UACC-257 melanoma) was 5.86 µM. It also gave a TGI (UACC-257 melanoma) of 18.5 µM, a GI50 (NCI-H226 lung) of 11.4 µM and a TGI (NCI-H226 lung) of 28.8 µM. For the same compound, the GI50 (UO-31 renal) was 1570 nM, the TGI (UO-31 renal) was 3.15 µM and the GI50 (MOLT-4 leukemia) was 2230 nM. It also gave a TGI (MOLT-4 leukemia) of 9.28 µM, a GI50 (LOX IMVI melanoma) of 1640 nM and a TGI (LOX IMVI melanoma) of 3.07 µM. It also gave a GI50 (SR leukemia) of 1880 nM, a TGI (SR leukemia) of 7.84 µM and a GI50 (TK-10 renal) of 13.1 µM. It also gave a TGI (TK-10 renal) of 25.9 µM, a GI50 (OVCAR-4 ovarian) of 2210 nM and a TGI (OVCAR-4 ovarian) of 6.35 µM.

— PubChem BioAssay (NCI)
